# Laboratory results reported in patent US20160214958A1, “COMPOUNDS AND USE FOR TREATING CANCER” (GLIONOVA AB, priority 2013, published 2016).
# Experiments:
# [1] = system: S10-resistant GSCs (U3013MG); test: Viability of S10-resistant GSCs surviving the shRNA screen; assay type: cell-based; conditions: Homo sapiens, cells surviving 14 μM S10 after shRNA library transduction, read-out: EC50 on GSC viability, S10-resistant GSCs
# Source text: A genome wide screen with shRNA libraries was used to identify pathways for S10 induced macropinocytosis. The approach was based on the idea that depleting a key factor in the pathway should render GSCs refractive to S10 induced death. Three different DECIPHER pooled lentiviral shRNA libraries consisting of 82500 shRNA covering 15377 genes grouped into Human Module 1 (genes associated with various signaling pathways), Human Module 2 (disease-associated genes) and Human Module 3 (genes associated with cell surface, extracellular and DNA binding), were used to transduce U3013MG GSCs. Four days later, 14 μM S10 was added for one day after which cells were cultured in standard medium for five month. Surviving cells were thereafter dissociated and further expanded. […] Phospho-MKK4 increased within 5 min of S10 exposure and remained at similar levels for at least 26 hrs of stimulation. Abrogation of MAP2K4 activity by five independent shRNAs led to marked increase of the EC50 viability value of S10-treated GSC. […] MKK4 was thereafter confirmed as a required protein for S10 induced macropinocytosis. […] Thus, the distinctive feature of susceptibility to macropinocytosis and death in GSCs require MKK4 activity.
# GSCs grown to 70% confluency were transduced by DECIPHER pooled lentiviral shRNA libraries consisting of Human Module 1, 2 and 3 using earlier described protocols (Pasini et al., 2008). […]
# [2] = system: U3013MG GSCs injected into brain ventricle; test: Zebrafish xenograft in vivo efficacy assay
# Protocol: A xenotransplantation model for GBM in zebrafish was developed to test the capacity of the 17 hits to prevent tumor formation in vivo. Three thousand U3013MG GSCs labeled with cell tracker red were injected intracranially into the ventricle of 48-52 hpf larvae. Each of the 17 hits were administered to the egg water at the lowest effective in vitro cytotoxic concentration identified and tumor development assessed 10 days later. This assay allowed rapid evaluation of the compounds in an in vivo setup, features such as the acute/chronic toxicity effect of the compounds on zebrafish and the transplanted cells, transplanted cell proliferation and migration of cells into brain parenchyma, compounds penetrance into the zebrafish tissue were all parallely evaluated. […] Cardiovascular toxicity was assessed using a recently established model based on frequency spectral analysis of heart beating in ex-vivo adult zebrafish hearts (Kitambi et al., (2012) BMC Physiol. 12, 3).
# The zebrafish xenografts glioblastoma model was developed for quantitative analyses on the efficacy of S10 to inhibit tumor development and for quantification of infiltration of cells in the host brain. […] The size of the tumor was determined by quantification of the area, fluorescence level and infiltration by measuring the average distance of infiltrating cells from the original tumor mass. […]
# [3] = Tolerance of oral dosing of S10; assay type: in vivo; conditions: 20 mg/kg/day oral gavage for one week, weight loss and signs of distress
# phospho-MKK4 = test: Western blot of GSC for phospho-MKK4; assay type: cell-based, human; conditions: GSCs; remained at similar levels for at least 26 hrs
# Source text: A genome wide screen with shRNA libraries was used to identify pathways for S10 induced macropinocytosis. The approach was based on the idea that depleting a key factor in the pathway should render GSCs refractive to S10 induced death. Three different DECIPHER pooled lentiviral shRNA libraries consisting of 82500 shRNA covering 15377 genes grouped into Human Module 1 (genes associated with various signaling pathways), Human Module 2 (disease-associated genes) and Human Module 3 (genes associated with cell surface, extracellular and DNA binding), were used to transduce U3013MG GSCs. Four days later, 14 μM S10 was added for one day after which cells were cultured in standard medium for five month. Surviving cells were thereafter dissociated and further expanded. […] Phospho-MKK4 increased within 5 min of S10 exposure and remained at similar levels for at least 26 hrs of stimulation. […]
# Whole-cell extracts were prepared in SDS-buffer (25 mM Tris-HCl, pH 7.5, 1 mM EDTA, protease inhibitor cocktail (Roche), and phosphatase inhibitors [2 mM sodium orthovanadate, 20 mM beta-glycerolphosphate], and 1% SDS). The samples were analysed by western blot as described previously (Aranda et al. (2008) Mol Cell Biol, 28, 5899-5911) with the following antibodies: anti-Histone H3 (Abcam), antitrimethyl(Lys27)-Histone H3 (Millipore) and anti-phospho(S257/Thr261)-SEK1/MKK4 (R&D Systems).
compound,measurement,setting,value
"OC(c1cc(-c2ccc(Cl)cc2)nc2ccccc12)C1CCCCN1 (racemic) [Compound S10, (2-(4-chlorophenyl)quinolin-4-yl)(piperidin-2-yl)methanol]",EC50,[1],14.3 ± 1.16 µM
same,tumor growth,[2]; 15 μM applied to the aquarium water for 10 days,marked attenuation of tumor growth
same,tumor size,"[2]; lowest effective in vitro cytotoxic concentration in egg water, assessed 10 days later",markedly reduced tumor size
same,tolerance of oral dosing,[3],well tolerated
same,time to increase of Phospho-MKK4 after exposure,phospho-MKK4,≤ 5 min
